Read-outs that look alike come from different tables or passages of the source.
Columns and labels:
Type in all cases: cell-based
AKT1 E17K = target: T1, AKT1 E17K (Homo sapiens, UniProt P31749, E17K); assay: Live cell AKT1 E17K target engagement by NanoBRET competitive probe displacement; details: HEK293 cells transfected with kinase-NanoLuciferase fusion, 2 h at 37° C.
T1 construct: expressed in transfected cells; host or cells: HEK293
Experimental: (§1) Determining Live Cell AKT1 E17K, AKT1 WT, and AKT2 Target Engagement by NanoBRET Competitive Probe Displacement.
(§2) Live cell target engagement assays were performed as described (Vasta, J. D. et al. Cell Chem Biol 2018, 25(11), 206-214). Briefly, HEK293 cells were transfected with plasmids encoding kinase-NanoLuciferase fusion proteins overnight. Cells were then treated with serial dilutions of compound and an ˜EC50 concentration of fluorescently-tagged ATP-competitive tracer (Promega). After incubation for 2 h at 37° C., luciferase substrate and extracellular luciferase inhibitor were added to all wells, and luminescent intensity at 460 nm and 600 nm were measured on a multimode plate-reader. The ratio of E600/E460 was calculated to give the tracer engagement signal (BRET). IC50 values were calculated by fitting BRET values to a log(inhibitor) vs. response Hill equation.

AKT1 WT = target: T2, AKT1 WT (Homo sapiens, UniProt P31749); assay: Live cell AKT1 WT target engagement by NanoBRET competitive probe displacement; details: HEK293 cells transfected with kinase-NanoLuciferase fusion, 2 h at 37° C.
T2 construct: expressed in transfected cells; host or cells: HEK293
Experimental: as §1, §2

[1] = test system: LAPC4 prostate cancer cells; assay: Antiproliferative effects in LAPC4 cells (CellTiter Glo); details: LAPC4 cells (AKT1 E17K allele), read-out: LAPC4 proliferation IC50
Experimental: Antiproliferative Effects in LAPC4 Cells.
LAPC4 prostate cancer cells (Klein, K. A. et al. Nat Med 1997, 3, 402-408), which express the AKT1 E17K allele, were grown in IMDM media (Hyclone) supplemented with 12% FBS+1% P/S. To assess compound effects on growth, 1,000 cells/well were seeded in 384 well assay plates, incubated with compound dilutions dissolved in DMSO. After 72 h, intracellular ATP content was assessed with CellTiter Glo reagent (Promega) according to the manufacturer's instructions. IC50 values were calculated by fitting luminescence values to a log(inhibitor) vs. response Hill equation.

T2 sequence (P31749 whole entry, the tested form may be a part): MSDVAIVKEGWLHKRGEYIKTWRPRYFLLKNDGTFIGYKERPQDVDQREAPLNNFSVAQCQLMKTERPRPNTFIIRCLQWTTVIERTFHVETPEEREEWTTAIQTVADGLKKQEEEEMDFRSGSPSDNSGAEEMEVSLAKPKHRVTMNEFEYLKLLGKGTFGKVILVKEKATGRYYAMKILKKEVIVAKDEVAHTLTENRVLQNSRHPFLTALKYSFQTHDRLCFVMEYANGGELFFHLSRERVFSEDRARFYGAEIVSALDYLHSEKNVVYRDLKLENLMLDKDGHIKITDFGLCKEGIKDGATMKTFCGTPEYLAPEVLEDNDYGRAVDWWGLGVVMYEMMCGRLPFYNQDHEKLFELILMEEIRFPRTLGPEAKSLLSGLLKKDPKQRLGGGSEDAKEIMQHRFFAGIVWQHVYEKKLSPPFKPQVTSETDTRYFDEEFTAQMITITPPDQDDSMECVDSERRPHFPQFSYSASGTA
T1 sequence (P31749 whole entry E17K, the tested form may be a part): as the sequence (P31749 whole entry, the tested form may be a part) above, with E17K counted along it

Structure (SMILES)	IC50 (AKT1 E17K)	IC50 (AKT1 WT)	IC50 ([1]; 72 h)	IC50 ([1]; Homo sapiens, LAPC4, 72 h)
C=CC(=O)N1CCN(N(C)C2CCc3cc(-n4c(-c5cccnc5N)nc5ccc(-n6cccn6)nc54)ccc32)CC1 (single isomer, unassigned) [Example 179, 1-(4-{[(1*)-5-[2-(2-aminopyridin-3-yl)-5-(pyrazol-1-yl)imidazo[4,5-b]pyridin-3-yl]-2,3-dihydro-1H-inden-1-yl](methyl)amino}piperazin-1-yl)prop-2-en-1-one]	203 nM	2890 nM	3520 nM	–
C=CC(=O)N1CCC(N[C@H]2CCc3cc(-n4c(-c5cccnc5N)nc5ccc(-n6cccn6)nc54)ccc32)CC1CC#N (single isomer, unassigned) [Example 338, 2-((2*,4*)-1-acryloyl-4-(((S)-5-(2-(2-aminopyridin-3-yl)-5-(1H-pyrazol-1-yl)-3H-imidazo[4,5-b]pyridin-3-yl)-2,3-dihydro-1H-inden-1-yl)amino)piperidin-2-yl)acetonitrile]	12.3 nM	108 nM	–	–
C=CC(=O)N1C[C@@H]2[C@H](C1)[C@H]2NC1CCc2cc(-n3c(-c4cccnc4N)nc4ccc(-n5cccn5)nc43)ccc21 (single isomer, unassigned) [Example 346, 1-((1R,5S,6s)-6-(((*)-5-(2-(2-aminopyridin-3-yl)-5-(1H-pyrazol-1-yl)-3H-imidazo[4,5-b]pyridin-3-yl)-2,3-dihydro-1H-inden-1-yl)amino)-3-azabicyclo[3.1.0]hexan-3-yl)prop-2-en-1-one]	444 nM	2770 nM	–	–
C=CC(=O)N1C[C@@H]2[C@H](C1)[C@H]2NC1CCc2cc(-n3c(-c4cccnc4N)nc4ccc(-n5cccn5)nc43)ccc21 (single isomer, unassigned) [Example 347, 1-((1R,5S,6s)-6-(((*)-5-(2-(2-aminopyridin-3-yl)-5-(1H-pyrazol-1-yl)-3H-imidazo[4,5-b]pyridin-3-yl)-2,3-dihydro-1H-inden-1-yl)amino)-3-azabicyclo[3.1.0]hexan-3-yl)prop-2-en-1-one]	234 nM	2210 nM	–	–
C=CC(=O)N1CCC(NC2CCc3cc(-n4c(-c5cccnc5N)nc5ccc(C(F)F)nc54)ccc32)CC1 (stereo in doubt) [Example 196, 1-(4-{[(1R)-5-[2-(2-aminopyridin-3-yl)-5-(difluoromethyl)imidazo[4,5-b]pyridin-3-yl]-?3-dihydro-1H-inden-1-yl]amino}piperidin-1-yl)prop-2-en-1-one]	96.6 nM	1990 nM	–	1210 nM
C=CC(=O)N1CCC(N[C@H]2CCc3cc(-n4c(-c5cccnc5N)nc5ccc(N6CCCC6)nc54)ccc32)CC1 [Example 170, 1-(4-{[(1S)-5-[2-(2-aminopyridin-3-yl)-5-(pyrrolidin-1-yl)imidazo[4,5-b]pyridin-3-yl]-2,3-dihydro-1H-inden-1-yl]amino}piperidin-1-yl)prop-2-en-1-one]	12.5 nM	114 nM	–	160 nM
C=CC(=O)N1CCC(N[C@H]2CC(F)(F)c3cc(-n4c(-c5cccnc5N)nc5ccc(-n6cccn6)nc54)ccc32)CC1 [Example 305, (S)-1-(4-((5-(2-(2-aminopyridin-3-yl)-5-(1H-pyrazol-1-yl)-3H-imidazo[4,5-b]pyridin-3-yl)-3,3-difluoro-2,3-dihydro-1H-inden-1-yl)amino)piperidin-1-yl)prop-2-en-1-one]	63.4 nM	–	–	2740 nM

Stronger by IC50 (AKT1 E17K), values ahead:

IC50 (AKT1 E17K)	IC50 (AKT1 WT)	IC50 ([1]; 72 h)	IC50 ([1]; Homo sapiens, LAPC4, 72 h)	Structure (SMILES)
5.65 nM	35 nM	56.3 nM	–	C=CC(=O)N1C[C@H]2CCC[C@@H](C1)C2N[C@H]1CCc2cc(-n3c(-c4cccnc4N)nc4ccc(-n5cccn5)nc43)ccc21 (single isomer, unassigned) [Example 188, 1-((1R,5S,9*)-9-(((S)-5-(2-(2-aminopyridin-3-yl)-5-(1H-pyrazol-1-yl)-3H-imidazo[4,5-b]pyridin-3-yl)-2,3-dihydro-1H-inden-1-yl)amino)-3-azabicyclo[3.3.1]nonan-3-yl)prop-2-en-1-one]
10.2 nM	71.5 nM	–	58.4 nM	C=CC(=O)NC1CCN(C2CCc3cc(-n4c(-c5cccnc5N)nc5ccc(-n6cccn6)nc54)ccc32)CC1 (single isomer, unassigned) [Example 193, N-{1-[(1*)-5-[2-(2-aminopyridin-3-yl)-5-(pyrazol-1-yl)imidazo[4,5-b]pyridin-3-yl]-2,3-dihydro-1H-inden-1-yl]piperidin-4-yl}prop-2-enamide]
6.9 nM	36.1 nM	36.6 nM	–	C=CC(=O)N1CCC(N[C@H]2CCc3cc(-n4c(-c5cccnc5N)nc5ccc(-n6cccn6)nc54)ccc32)C[C@@H]1C(F)F (single isomer, unassigned) [Example 212, 1-((2R,4*)-4-(((S)-5-(2-(2-aminopyridin-3-yl)-5-(1H-pyrazol-1-yl)-3H-imidazo[4,5-b]pyridin-3-yl)-2,3-dihydro-1H-inden-1-yl)amino)-2-(difluoromethyl)piperidin-1-yl)prop-2-en-1-one]
4.87 nM	13.8 nM	9.69 nM	–	C=CC(=O)N1CCC(N[C@H]2CCc3cc(-n4c(-c5cccnc5N)nc5ccc(-n6cccn6)nc54)ccc32)C[C@@H]1C(F)F (single isomer, unassigned) [Example 213, 1-((2R,4*)-4-(((S)-5-(2-(2-aminopyridin-3-yl)-5-(1H-pyrazol-1-yl)-3H-imidazo[4,5-b]pyridin-3-yl)-2,3-dihydro-1H-inden-1-yl)amino)-2-(difluoromethyl)piperidin-1-yl)prop-2-en-1-one]
4.72 nM	36.5 nM	–	26.7 nM	C=CC(=O)N1CCC(N[C@H]2CCc3cc(-n4c(-c5cccnc5N)nc5ccc(-n6cccn6)nc54)ccc32)C[C@H]1C(F)F (single isomer, unassigned) [Example 214, 1-((2S,4*)-4-(((S)-5-(2-(2-aminopyridin-3-yl)-5-(1H-pyrazol-1-yl)-3H-imidazo[4,5-b]pyridin-3-yl)-2,3-dihydro-1H-inden-1-yl)amino)-2-(difluoromethyl)piperidin-1-yl)prop-2-en-1-one]
6.85 nM	44.9 nM	–	134 nM	C=CC(=O)N1CCN(CC2CCc3cc(-n4c(-c5cccnc5N)nc5ccc(-n6cccn6)nc54)ccc32)C[C@H]1C (single isomer, unassigned) [Example 292, 1-((R)-4-(((*)-5-(2-(2-aminopyridin-3-yl)-5-(1H-pyrazol-1-yl)-3H-imidazo[4,5-b]pyridin-3-yl)-2,3-dihydro-1H-inden-1-yl)methyl)-2-methylpiperazin-1-yl)prop-2-en-1-one]
9.32 nM	1180 nM	–	603 nM	C=CC(=O)N1CCC(N[C@@H]2c3ccc(-n4c(-c5ccccc5F)nc5ccc(-n6cccn6)nc54)cc3CC2F)CC1 (single isomer, unassigned) [Example 299, 1-(4-(((1R,2*)-2-fluoro-5-(2-(2-fluorophenyl)-5-(1H-pyrazol-1-yl)-3H-imidazo[4,5-b]pyridin-3-yl)-2,3-dihydro-1H-inden-1-yl)amino)piperidin-1-yl)prop-2-en-1-one]
8.86 nM	105 nM	172 nM	–	C=CC(=O)N1CCC(N[C@@H]2c3ccc(-n4c(-c5cccnc5N)nc5ccc(-n6cccn6)nc54)cc3CC2F)CC1C(F)F (single isomer, unassigned) [Example 301, 1-((2*,4*)-4-(((1R,2*)-5-(2-(2-aminopyridin-3-yl)-5-(1H-pyrazol-1-yl)-3H-imidazo[4,5-b]pyridin-3-yl)-2-fluoro-2,3-dihydro-1H-inden-1-yl)amino)-2-(difluoromethyl)piperidin-1-yl)prop-2-en-1-one]
10.9 nM	22.1 nM	15.1 nM	–	C=CC(=O)N1CCC(N[C@@H]2c3ccc(-n4c(-c5cccnc5N)nc5ccc(-n6cccn6)nc54)cc3CC2F)CC1C(F)F (single isomer, unassigned) [Example 303, 1-((2*,4*)-4-(((1R,2*)-5-(2-(2-aminopyridin-3-yl)-5-(1H-pyrazol-1-yl)-3H-imidazo[4,5-b]pyridin-3-yl)-2-fluoro-2,3-dihydro-1H-inden-1-yl)amino)-2-(difluoromethyl)piperidin-1-yl)prop-2-en-1-one]
4.33 nM	28.5 nM	–	–	C=CC(=O)N1CCC(NC2c3ccc(-n4c(-c5cccnc5N)nc5ccc(-n6ccc(C7CC7)n6)nc54)cc3CC2F)CC1C(F)F (single isomer, unassigned) [Example 333, 1-((2*,4*)-4-(((1*,2*)-5-(2-(2-aminopyridin-3-yl)-5-(3-cyclopropyl-H-pyrazol-1-yl)-3H-imidazo[4,5-b]pyridin-3-yl)-2-fluoro-2,3-dihydro-1H-inden-1-yl)amino)-2-(difluoromethyl)piperidin-1-yl)prop-2-en-1-one]

From patent US12570655B2, “Cysteine covalent modifiers of AKT1 and uses thereof” (Terremoto Biosciences, Inc., priority 2023, dated 2026)
